Measurements reported in US20250152585A1, “PHARMACEUTICAL COMPOUND” (Duke Street Bio Limited, priority 2022, published 2025).
Where two headings read alike, the source gives them in different places.

Tests used:
[1] = target: T1, full length N-terminally FLAG-tagged PARP1 (Homo sapiens, UniProt P09874); test: PARP1 probe displacement HTRF assay; conditions: for Selectivity: PARP1 over PARP2, ratio Kd (PARP2)/Kd (PARP1); for Kd: binned Kd
[2] = target: T1, full length N-terminally FLAG-tagged PARP1; test: PARP1 biochemical DELFIA assay (auto-PARylation); design: recombinant full length human N-terminally FLAG-tagged PARP1
[3] = target: T2, N-terminally FLAG-tagged PARP2 (amino acids 1-583) (Homo sapiens, UniProt Q9UGN5); test: PARP2 probe displacement HTRF assay; format: binding; conditions: binned Kd
T2 construct: N-terminally FLAG-tagged PARP2 (amino acids 1-583)
Protocol: Data analysis was performed identical as for PARP1.

[4] = read-out: PARP1 HTRF, probe displacement HTRF
[5] = binned IC50, biochemical auto-PARylation assay
[6] = PARP1 HTRF, probe displacement HTRF
[7] = PARP1 HTRF, PARP1 probe displacement HTRF
[8] = binned IC50, PARP1 biochemical DELFIA assay
[9] = read-out: PARP1 HTRF, PARP1 probe displacement HTRF

T2 sequence (Q9UGN5 whole entry, the tested form may be a part): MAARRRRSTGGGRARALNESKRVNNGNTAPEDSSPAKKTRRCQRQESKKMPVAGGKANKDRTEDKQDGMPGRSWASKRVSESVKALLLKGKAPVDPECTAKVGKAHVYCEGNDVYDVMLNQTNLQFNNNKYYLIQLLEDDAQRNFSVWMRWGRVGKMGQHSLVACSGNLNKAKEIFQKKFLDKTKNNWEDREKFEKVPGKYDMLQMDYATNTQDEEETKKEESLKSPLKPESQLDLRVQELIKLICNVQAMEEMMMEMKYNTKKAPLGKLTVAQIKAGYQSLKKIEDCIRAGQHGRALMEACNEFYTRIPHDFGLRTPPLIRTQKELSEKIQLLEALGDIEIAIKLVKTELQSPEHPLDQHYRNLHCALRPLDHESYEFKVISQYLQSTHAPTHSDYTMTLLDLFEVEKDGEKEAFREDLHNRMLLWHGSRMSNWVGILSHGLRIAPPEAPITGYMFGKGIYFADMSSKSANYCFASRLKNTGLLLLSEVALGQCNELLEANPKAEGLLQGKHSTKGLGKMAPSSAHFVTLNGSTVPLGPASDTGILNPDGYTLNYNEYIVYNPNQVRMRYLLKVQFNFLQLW
T1 sequence (P09874 whole entry): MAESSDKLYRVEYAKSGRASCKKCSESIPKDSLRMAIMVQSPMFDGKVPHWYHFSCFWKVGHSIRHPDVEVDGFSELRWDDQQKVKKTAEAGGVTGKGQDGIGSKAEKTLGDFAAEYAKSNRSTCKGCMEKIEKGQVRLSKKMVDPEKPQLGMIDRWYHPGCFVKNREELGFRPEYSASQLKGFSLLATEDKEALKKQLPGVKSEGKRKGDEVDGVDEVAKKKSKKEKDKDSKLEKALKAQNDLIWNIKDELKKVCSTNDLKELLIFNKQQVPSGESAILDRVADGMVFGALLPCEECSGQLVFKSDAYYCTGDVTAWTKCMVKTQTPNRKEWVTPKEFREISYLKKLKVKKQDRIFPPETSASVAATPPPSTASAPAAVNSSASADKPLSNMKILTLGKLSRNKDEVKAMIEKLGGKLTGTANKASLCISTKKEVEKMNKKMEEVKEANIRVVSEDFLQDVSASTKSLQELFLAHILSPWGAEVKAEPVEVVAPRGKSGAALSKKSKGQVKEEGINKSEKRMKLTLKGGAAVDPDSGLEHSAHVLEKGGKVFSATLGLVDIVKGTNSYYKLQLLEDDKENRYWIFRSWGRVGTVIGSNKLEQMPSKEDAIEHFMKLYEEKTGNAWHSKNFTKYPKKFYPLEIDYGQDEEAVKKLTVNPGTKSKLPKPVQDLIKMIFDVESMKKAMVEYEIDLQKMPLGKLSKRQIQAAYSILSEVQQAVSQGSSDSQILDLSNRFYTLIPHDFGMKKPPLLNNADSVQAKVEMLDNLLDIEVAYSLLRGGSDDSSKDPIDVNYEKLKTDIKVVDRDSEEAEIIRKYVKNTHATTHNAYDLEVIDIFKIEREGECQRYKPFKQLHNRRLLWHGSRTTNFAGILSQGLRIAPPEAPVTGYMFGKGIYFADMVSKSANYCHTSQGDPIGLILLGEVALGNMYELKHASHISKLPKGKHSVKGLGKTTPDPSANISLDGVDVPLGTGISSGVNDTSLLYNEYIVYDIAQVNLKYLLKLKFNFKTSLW

Row | Kd [1, 4] [nM] | IC50 [2, 5] [nM] | Kd ([3]; probe displacement HTRF) [nM] | Kd [1, 6] [nM] | Kd [1, 7] [nM] | IC50 [2, 8] [nM] | Kd ([3]; PARP2 probe displacement HTRF) [nM] | Kd [1, 9] [nM] | Structure (SMILES) | Selectivity ([1]; probe displacement HTRF)
1 | < 10 | < 10 | 100 to 1000 | – | – | – | – | – | CNC(=O)c1ccc(N2CCC(N3CCC(c4[nH]c(=O)c5cc(F)ccc5c4F)C3)CC2)cn1 (single isomer, unassigned) [Compound 370a] | +++ (+++ indicate a value of at least 100)
2 | – | < 10 | > 10000 | 10 to 100 | – | – | – | – | CNC(=O)c1ccc(N2CCC(N3CC4(c5nc6ccncc6c(=O)[nH]5)CC3C4)CC2)cn1 [Compound 304] | +++ (+++ indicate a value of at least 100)
3 | – | – | – | – | 100 to 1000 | 100 to 1000 | > 10000 | – | CCc1cnc(C2CCN(C(=O)C3CCN(c4ccc(C(=O)NC)nc4)CC3)CC2)[nH]c1=O [Compound 41] | + (+ indicates a value of 10 to less than 50)
4 | – | – | – | – | – | 10 to 100 | 1000 to 10000 | 10 to 100 | CNC(=O)c1cnc(N2CCC(N3CCC(c4nc5ccccc5c(=O)[nH]4)C3)CC2)cn1 (single isomer, unassigned) [Compound 96a] | + (+ indicates a value of 10 to less than 50)
5 | < 10 | < 10 | 10 to 100 | – | – | – | – | – | CNC(=O)c1ccc(N2CCC(N3CCC(c4[nH]c(=O)c5cc(F)ccc5c4F)C3)CC2)cn1 (single isomer, unassigned) [Compound 401a] | +++ (+++ indicate a value of at least 100)
6 | – | – | – | – | – | 100 to 1000 | 1000 to 10000 | 100 to 1000 | CNC(=O)c1ccc(F)c(N2CCC(N3CCC(c4nc5ccccc5c(=O)[nH]4)C3)CC2)n1 (racemic) [Compound 105rac] | − (− indicates a value of less than 10)
7 | – | < 10 | 100 to 1000 | < 10 | – | – | – | – | CNC(=O)c1ccc(N2CCC(N3CC4(c5nc6c(c(=O)[nH]5)CCCC6)CC3C4)CC2)c(F)n1 [Compound 389] | +++ (+++ indicate a value of at least 100)
8 | – | < 10 | 100 to 1000 | < 10 | – | – | – | – | CCN1CCCc2c1nc(C13CC(C1)N(C1CCN(c4ccc(C(=O)NC)nc4F)CC1)C3)[nH]c2=O [Compound 384] | + (+ indicates a value of 10 to less than 50)
9 | 100 to 1000 | 100 to 1000 | > 10000 | – | – | – | – | – | CNC(=O)c1ccc(N2CCC(N3CCC(c4cc5c(C(F)(F)F)nn(C)c5c(=O)[nH]4)C3)CC2)cn1 (racemic) [Compound 392rac] | + (+ indicates a value of 10 to less than 50)
10 | – | – | – | – | – | < 10 | 100 to 1000 | < 10 | CNC(=O)c1ccc(N2CCC(N3CCC(c4cc5c(Cl)cccc5c(=O)[nH]4)C3)CC2)cn1 (single isomer, unassigned) [Compound 137a] | +++ (+++ indicate a value of at least 100)
11 | – | – | – | – | – | < 10 | 1000 to 10000 | < 10 | CNC(=O)c1ccc(N2CCC(N3CCC(c4nc5ccccc5c(=O)[nH]4)C3)CC2)c(C)n1 (single isomer, unassigned) [Compound 125a] | +++ (+++ indicate a value of at least 100)
12 | – | – | – | – | – | 100 to 1000 | 1000 to 10000 | 100 to 1000 | CNC(=O)c1ccc(N2CCC(N3CCCC(c4nc5c(c(C(F)(F)F)nn5C)c(=O)[nH]4)C3)CC2)cn1 (single isomer, unassigned) [Compound 190a] | + (+ indicates a value of 10 to less than 50)
13 | – | – | – | – | – | 1000 to 10000 | > 10000 | > 10000 | CNC(=O)c1ccc(N2CCC(N3CCCC(c4ccc(CC(F)(F)F)c(=O)[nH]4)C3)CC2)cn1 (single isomer, unassigned) [Compound 169a] | − (− indicates a value of less than 10)
14 | < 10 | < 10 | < 10 | – | – | – | – | – | CNC(=O)c1ccc(N2CCC(N3CCC(c4cc5c(c(C(F)(F)F)nn5C)c(=O)[nH]4)C3)CC2)c(F)n1 (single isomer, unassigned) [Compound 407b] | + (+ indicates a value of 10 to less than 50)
15 | – | – | – | – | – | 10 to 100 | > 10000 | 10 to 100 | CNC(=O)c1ccc(N2CCC(N3CCOC(c4nc5ccccc5c(=O)[nH]4)C3)CC2)cn1 (single isomer, unassigned) [Compound 58b] | ++ (++ indicates a value of 50 to less than 100)
16 | 10 to 100 | 10 to 100 | 1000 to 10000 | – | – | – | – | – | CNC(=O)c1ccc(N2CCC(N3CCC(c4nc5c(C(F)(F)F)cn(C)c5c(=O)[nH]4)C3)CC2)cn1 (racemic) [Compound 288rac] | +++ (+++ indicate a value of at least 100)

Row | Kd [1, 4] [nM] | IC50 [2, 5] [nM] | Kd ([3]; probe displacement HTRF) [nM] | Kd [1, 6] [nM] | Kd [1, 7] [nM] | IC50 [2, 8] [nM] | Kd ([3]; PARP2 probe displacement HTRF) [nM] | Kd [1, 9] [nM] | Structure (SMILES) | Selectivity ([1]; probe displacement HTRF)
17 | 1000 to 10000 | 1000 to 10000 | 1000 to 10000 | – | – | – | – | – | CNC(=O)c1ccc(N2CCC(N3CCC(c4cc5ccccc5c(=O)[nH]4)C3)CC2)s1 (racemic) [Compound 319rac] | − (− indicates a value of less than 10)
18 | < 10 | < 10 | 10 to 100 | – | – | – | – | – | O=c1[nH]c(C2CCN(C3CCN(c4ccc(OC(F)F)nc4)CC3)C2)cc2ccc(F)cc12 (single isomer, unassigned) [Compound 374b] | ++ (++ indicates a value of 50 to less than 100)
19 | – | – | – | – | – | 10 to 100 | 1000 to 10000 | 10 to 100 | CNC(=O)c1ccc(N2CCC(N3CCCC(c4cc5ccccc5c(=O)[nH]4)C3)CC2)cn1 (single isomer, unassigned) [Compound 100b] | +++ (+++ indicate a value of at least 100)
20 | – | – | – | – | – | 100 to 1000 | > 10000 | 10 to 100 | CNC(=O)c1ccc(N2CCC(N3CCC(c4ncc(C(F)(F)F)c(=O)[nH]4)C3)CC2)cn1 (single isomer, unassigned) [Compound 56a] | ++ (++ indicates a value of 50 to less than 100)
21 | < 10 | < 10 | 1000 to 10000 | – | – | – | – | – | CCc1ccc(C2CCN(C3CCN(c4cnc(C(=O)NC)cc4F)CC3)C2)[nH]c1=O (racemic) [Compound 257rac] | +++ (+++ indicate a value of at least 100)
22 | – | – | – | – | – | 10 to 100 | 1000 to 10000 | 10 to 100 | CNC(=O)c1ccc(N2CCC(N3CCC(c4nc5ccccc5c(=O)[nH]4)C3)CC2)c(C(F)F)n1 (single isomer, unassigned) [Compound 158b] | +++ (+++ indicate a value of at least 100)
23 | – | – | – | – | – | 100 to 1000 | > 10000 | 100 to 1000 | CNC(=O)c1ccc(N2CCC(N3CCCC(c4nc5cc(F)ccc5c(=O)[nH]4)C3)CC2)cn1 (single isomer, unassigned) [Compound 108b] | + (+ indicates a value of 10 to less than 50)
24 | 100 to 1000 | 100 to 1000 | > 10000 | – | – | – | – | – | CNC(=O)c1ccc(N2CCC(N3CCC(c4nc5ncncc5c(=O)[nH]4)C3)CC2)cn1 (racemic) [Compound 335rac] | + (+ indicates a value of 10 to less than 50)
25 | – | – | – | – | < 10 | < 10 | > 10000 | – | CNC(=O)c1ccc(N2CCC(N3CCCC(c4nc5ccccc5c(=O)[nH]4)C3)CC2)cn1 (single isomer, unassigned) [Compound 6a, N-methyl-5-(3-(4-oxo-3,4-dihydroquinazolin-2-yl)-[1,4′-bipiperidin]-1′-yl)picolinamide] | +++ (+++ indicate a value of at least 100)
26 | 100 to 1000 | 100 to 1000 | 1000 to 10000 | – | – | – | – | – | CNC(=O)c1csc(N2CCC(N3CCC(c4cc5ccccc5c(=O)[nH]4)C3)CC2)n1 (single isomer, unassigned) [Compound 274a] | − (− indicates a value of less than 10)
27 | – | – | – | – | – | 100 to 1000 | > 10000 | 100 to 1000 | CNC(=O)c1ccc(N2CCC(N3CCC(c4nc5cc(F)ccc5c(=O)[nH]4)C3)CC2)cn1 (single isomer, unassigned) [Compound 92a] | + (+ indicates a value of 10 to less than 50)
28 | – | – | – | – | – | < 10 | 1000 to 10000 | < 10 | CNC(=O)c1ccc(N2CCC(N3CCC(c4ccc(C5CC5)c(=O)[nH]4)C3)CC2)cn1 (racemic) [Compound 141rac] | +++ (+++ indicate a value of at least 100)
29 | – | < 10 | > 10000 | < 10 | – | – | – | – | CNC(=O)c1ccc(N2CCC(N3CC4(c5nc6ncc(F)cc6c(=O)[nH]5)CC3C4)CC2)cn1 [Compound 368] | +++ (+++ indicate a value of at least 100)
30 | 10 to 100 | 10 to 100 | > 10000 | – | – | – | – | – | CNC(=O)c1ccc(N2CCC(N3CCC(c4nc5c(c(=O)[nH]4)NCCN5)C3)CC2)cn1 (racemic) [Compound 226rac] | ++ (++ indicates a value of 50 to less than 100)
31 | 100 to 1000 | 100 to 1000 | > 10000 | – | – | – | – | – | CNC(=O)c1ccc(N2CCC(N3CCC(c4nc5c(c(=O)[nH]4)CCC5)C3)CC2)cn1 (single isomer, unassigned) [Compound 283a] | + (+ indicates a value of 10 to less than 50)
32 | – | – | – | – | – | < 10 | 1000 to 10000 | < 10 | CNC(=O)c1ccc(N2CCC(N3CCC(c4cc5c(F)ccc(F)c5c(=O)[nH]4)C3)CC2)cn1 (single isomer, unassigned) [Compound 180a] | +++ (+++ indicate a value of at least 100)
